In US9592272B2, “Treatment of osteoarthritis with incretin hormones or analogues thereof” (UNIVERSITE PIERRE ET MARIE CURIE (PARIS 6), priority 2012, dated 2017):

Experiments:
[1] = clinical trials (Krzeski et al., 2007); cited from earlier work
[2] = in vivo, iv; cited from earlier work
[3] = tested on: MMP-3, MMP-9 and MMP-13 expression in chondrocytes; assay: Expression of MMP-3, MMP-9 and MMP-13 in primary chondrocytes in response to IL-1β (real-time quantitative RT-PCR); format: cell-based, murine; conditions: peptide 10 nM; IL-1β 0.1 or 1 ng/ml, 24 h; FIG. 1
Method: (§1) The murine chondrocytes were obtained after enzymatic digestion of femoral heads and knees of 4- to 6-day-old mice. The cells were amplified in a monolayer for 1 week (Gosset et al., 2008).
(§2) The cultures were deprived in a serum-free culture medium for 24 h before treatment.
(§3) The RNAs were extracted using the RNeasy Mini kit (Qiagen) and then reverse-transcribed using the Omniscript kit (Qiagen). The expression level of the genes of interest was quantified by real-time PCR (Light Cycler LC480), relative to the HPRT reference gene, using the following primers: […]

[4] = tested on: MMP-3, MMP-9 and MMP-13 expression in osteoblasts; assay: Expression of MMP-3, MMP-9 and MMP-13 in primary osteoblasts in response to IL-1β (real-time quantitative RT-PCR); format: cell-based, murine; conditions: peptide 10 nM, IL-1β 0.1 or 1 ng/ml, 24 h; for overexpression of the prodegradative enzymes MMP-3 and MMP-13 in the osteoblasts in response to an IL-1β treatment: FIGS. 2A, B and C
Method: The murine osteoblasts were obtained after enzymatic digestion of the skulls of 4- to 6-day-old mice. The cells were amplified for 3 weeks, in the presence of ascorbic acid and β-glycerophosphate. The osteoblasts at the end of culture formed a three-dimensional membrane (Sanchez et al., 2009).
as §2, §3

[5] = tested on: prostaglandin E2 (PGE2) release by chondrocytes; assay: Prostaglandin E2 release by chondrocytes in response to IL-1β (EIA on culture supernatants); format: cell-based, murine
Method: as §1, §2
The amount of PGE2 produced by the cells was measured by means of the prostaglandin E2 monoclonal EIA kit (Cayman) using the culture supernatants.

overexpression of the prodegradative enzymes MMP-3, MMP-9 and/or MMP-13 in the chondrocytes in response to an IL-1β treatment [3] | overexpression of the prodegradative enzymes MMP-3 and MMP-13 in the osteoblasts in response to an IL-1β treatment [4] | Compound | toxicity revealed during clinical trials [1] | half-life time [2] | release of prostaglandin E2 (PGE2) by the chondrocytes in response to an IL-1β treatment ([5]; peptide 10 nM, IL-1β 1 ng/ml, 24 h, FIG. 3) | induction of PGE2 by peptide alone, chondrocytes ([5]; peptide alone, without IL-1β) | overexpression of MMP-9 in the osteoblasts in response to an IL-1β treatment ([4]; FIG. 2D)
– | – | COc1ccc(C(=O)Nc2ccc(S(=O)(=O)NC(CC#CCN3CCOCC3)C(=O)O)cc2)cc1 (centres unmarked) [PG-116800] | musculoskeletal toxicity | – | – | – | –
inhibits | inhibits | GIP (1-42) | – | approximately 2 minutes | – | – | –
inhibits | inhibits | GLP-1 (7-36) amide | – | – | inhibits | does not induce | inhibits
inhibits | inhibits | GLP-1 (7-37) | – | – | – | – | –
